Experimental data from publication PMC5218480 (PLoS ONE, 2017).

System: MV-4-11 cells
Assay: Gene expression microarray analysis (Affymetrix PrimeView) and GSEA
Format: cell-based, human
Design: RFU PODN (11730768_x_at) / Fold change /veh PODN (11730768_x_at) / RFU LINC00158 (11744669_a_at) / Fold change /veh LINC00158 (11744669_a_at) / RFU DUSP10 (11751237_a_at) / Fold change /veh DUSP10 (11751237_a_at) / RFU ID3 (11757404_x_at) / Fold change /veh ID3 (11757404_x_at) / RFU PLEKHG5 (11737974_s_at) / Fold change /veh PLEKHG5 (11737974_s_at) / RFU LRRC4B (11730491_at) / Fold change /veh LRRC4B (11730491_at) / RFU GIMAP4 (11747438_a_at) / Fold change /veh GIMAP4 (11747438_a_at) / RFU KRT8 (11758183_x_at) / Fold change /veh KRT8 (11758183_x_at) / RFU CNN1 (11734310_a_at) / Fold change /veh CNN1 (11734310_a_at) / RFU VPS37D (11726825_at) / Fold change /veh VPS37D (11726825_at) / RFU C10orf10 (11716522_x_at) / Fold change /veh C10orf10 (11716522_x_at) / RFU KIR2DL2 /// KIR2DL4 /// KIR2DL5A /// KIR2DL5B /// KIR2DS1 /// KIR2DS2 /// KIR2DS3 /// KIR2DS4 /// KIR3DL3 /// KIR3DL3 /// KIR3DS1 (11738374_at) / Fold change /veh KIR2DL2 /// KIR2DL4 /// KIR2DL5A /// KIR2DL5B /// KIR2DS1 /// KIR2DS2 /// KIR2DS3 /// KIR2DS4 /// KIR3DL3 /// KIR3DL3 /// KIR3DS1 (11738374_at) / RFU C1QL1 (11718748_at) / Fold change /veh C1QL1 (11718748_at) / RFU TMPRSS4 (11747572_a_at) / Fold change /veh TMPRSS4 (11747572_a_at) / RFU HAMP (11756126_x_at) / Fold change /veh HAMP (11756126_x_at) / RFU RNFT2 (11725882_a_at) / Fold change /veh RNFT2 (11725882_a_at) / RFU NR4A2 (11747474_a_at) / Fold change /veh NR4A2 (11747474_a_at) / RFU ABCC12 (11746883_a_at) / Fold change /veh ABCC12 (11746883_a_at) / RFU TMEM136 (11760407_x_at) / Fold change /veh TMEM136 (11760407_x_at) / RFU CLDN22 /// WWC2 (11732394_at) / Fold change /veh CLDN22 /// WWC2 (11732394_at) / RFU HLA-DPB1 (11760878_x_at) / Fold change /veh HLA-DPB1 (11760878_x_at) / RFU SPINT1 (11716480_a_at) / Fold change /veh SPINT1 (11716480_a_at) / RFU GAP43 (11754022_s_at) / Fold change /veh GAP43 (11754022_s_at) / RFU A4GNT (11735810_at) / Fold change /veh A4GNT (11735810_at) / RFU PRB3 (11715151_x_at) / Fold change /veh PRB3 (11715151_x_at) / RFU TUBB4B (11761932_at) / Fold change /veh TUBB4B (11761932_at) / RFU CAPN14 (11732068_a_at) / Fold change /veh CAPN14 (11732068_a_at) / RFU TMCC2 (11721928_a_at) / Fold change /veh TMCC2 (11721928_a_at) / RFU IRGQ (11745062_a_at) / Fold change /veh IRGQ (11745062_a_at) / RFU FAM174B (11720279_a_at) / Fold change /veh FAM174B (11720279_a_at) / RFU TMPRSS4 (11748680_a_at) / Fold change /veh TMPRSS4 (11748680_a_at) / RFU FAM212B (11763350_a_at) / Fold change /veh FAM212B (11763350_a_at) / RFU PLEKHG5 (11743358_a_at) / Fold change /veh PLEKHG5 (11743358_a_at) / RFU ZSCAN30 (11745921_a_at) / Fold change /veh ZSCAN30 (11745921_a_at) / RFU CMKLR1 (11741424_a_at) / Fold change /veh CMKLR1 (11741424_a_at) / RFU LOC101060620 /// MAPK8IP1 (11723275_at) / Fold change /veh LOC101060620 /// MAPK8IP1 (11723275_at) / RFU SPTSSB (11747773_x_at) / Fold change /veh SPTSSB (11747773_x_at) / RFU PRSS12 (11739890_at) / Fold change /veh PRSS12 (11739890_at) / RFU BIN1 (11741810_x_at) / Fold change /veh BIN1 (11741810_x_at) / RFU WNT11 (11732464_a_at) / Fold change /veh WNT11 (11732464_a_at) / RFU C10orf10 (11716521_a_at) / Fold change /veh C10orf10 (11716521_a_at) / RFU C5orf56 (11738089_at) / Fold change /veh C5orf56 (11738089_at) / RFU CYB561 (11721691_x_at) / Fold change /veh CYB561 (11721691_x_at) / RFU ANKRD19P (11752326_a_at) / Fold change /veh ANKRD19P (11752326_a_at) / RFU OR2T12 /// OR2T33 /// OR2T8 (11738714_s_at) / Fold change /veh OR2T12 /// OR2T33 /// OR2T8 (11738714_s_at) / RFU VCAN (11748164_a_at) / Fold change /veh VCAN (11748164_a_at) / RFU JSRP1 (11732532_at) / Fold change /veh JSRP1 (11732532_at) / RFU KRTAP10-11 (11738290_x_at) / Fold change /veh KRTAP10-11 (11738290_x_at) / RFU MYO3A (11730013_a_at) / Fold change /veh MYO3A (11730013_a_at) / RFU EBF3 (11725865_a_at) / Fold change /veh EBF3 (11725865_a_at) / RFU CAMK2N1 (11719241_x_at) / Fold change /veh CAMK2N1 (11719241_x_at) / RFU C5orf56 (11738088_a_at) / Fold change /veh C5orf56 (11738088_a_at) / RFU OLFML3 (11715873_a_at) / Fold change /veh OLFML3 (11715873_a_at) / RFU LOC100653217 /// NTM (11731650_a_at) / Fold change /veh LOC100653217 /// NTM (11731650_a_at) / RFU MAPK11 (11762145_a_at) / Fold change /veh MAPK11 (11762145_a_at) / RFU FIZ1 (11724087_x_at) / Fold change /veh FIZ1 (11724087_x_at) / RFU OASL (11726364_x_at) / Fold change /veh OASL (11726364_x_at) / RFU SOX15 (11748057_x_at) / Fold change /veh SOX15 (11748057_x_at) / RFU CD79A (11719716_a_at) / Fold change /veh CD79A (11719716_a_at) / RFU HIST1H1D (11736915_at) / Fold change /veh HIST1H1D (11736915_at) / RFU CASKIN2 (11723855_a_at) / Fold change /veh CASKIN2 (11723855_a_at) / RFU LOC730098 (11760151_x_at) / Fold change /veh LOC730098 (11760151_x_at) / RFU OR4N2 (11742367_at) / Fold change /veh OR4N2 (11742367_at) / RFU PRRT2 (11749266_a_at) / Fold change /veh PRRT2 (11749266_a_at) / RFU SNX32 (11753110_a_at) / Fold change /veh SNX32 (11753110_a_at) / RFU CDHR5 (11726645_a_at) / Fold change /veh CDHR5 (11726645_a_at) / RFU RCAN1 (11760418_a_at) / Fold change /veh RCAN1 (11760418_a_at) / RFU FAM167A (11723789_a_at) / Fold change /veh FAM167A (11723789_a_at) / RFU FAM26E (11764081_at) / Fold change /veh FAM26E (11764081_at) / RFU ISYNA1 (11749810_s_at) / Fold change /veh ISYNA1 (11749810_s_at) / RFU ACY1 (11761880_at) / Fold change /veh ACY1 (11761880_at) / RFU 11764098_at / Fold change /veh 11764098_at / RFU SAMD14 (11745864_x_at) / Fold change /veh SAMD14 (11745864_x_at) / RFU NPB (11741838_a_at) / Fold change /veh NPB (11741838_a_at) / RFU TMPRSS6 (11731388_a_at) / Fold change /veh TMPRSS6 (11731388_a_at) / RFU KRTAP10-2 (11738614_at) / Fold change /veh KRTAP10-2 (11738614_at) / RFU ARHGAP8 /// PRR5-ARHGAP8 (11727945_x_at) / Fold change /veh ARHGAP8 /// PRR5-ARHGAP8 (11727945_x_at) / RFU KRTAP5-7 /// NADSYN1 (11734609_at) / Fold change /veh KRTAP5-7 /// NADSYN1 (11734609_at) / RFU RASL12 (11751679_a_at) / Fold change /veh RASL12 (11751679_a_at) / RFU CDKN2B (11736163_a_at) / Fold change /veh CDKN2B (11736163_a_at) / RFU PRF1 (11729649_at) / Fold change /veh PRF1 (11729649_at) / RFU, ZNF638 /// ZNF638-IT1 / Fold change vs veh, ZNF638 /// ZNF638-IT1 / RFU, PANK3 / Fold change vs veh, PANK3 / RFU, SH3YL1 / Fold change vs veh, SH3YL1 / RFU, ZEB2 / Fold change vs veh, ZEB2 / RFU, NRIP1 / Fold change vs veh, NRIP1 / RFU, PTTG1IP / Fold change vs veh, PTTG1IP / RFU, CAPN2 / Fold change vs veh, CAPN2 / RFU, MED14 / Fold change vs veh, MED14 / RFU, SNORA58 / Fold change vs veh, SNORA58 / RFU, C1orf63 / Fold change vs veh, C1orf63 / RFU, LRRFIP1 / Fold change vs veh, LRRFIP1 / RFU, NDUFAF7 / Fold change vs veh, NDUFAF7 / RFU, SLC12A2 / Fold change vs veh, SLC12A2 / RFU, IBTK / Fold change vs veh, IBTK / RFU, ESF1 / Fold change vs veh, ESF1 / Fold change vs veh, TMEM50B / RFU, TAOK1 / Fold change vs veh, TAOK1 / RFU, ACBD3 / Fold change vs veh, ACBD3 / RFU, TMA16 / Fold change vs veh, TMA16 / RFU, RWDD3 / Fold change vs veh, RWDD3 / RFU, BCAT1 / Fold change vs veh, BCAT1 / RFU, EDEM3 / Fold change vs veh, EDEM3 / RFU, TMEM33 / Fold change vs veh, TMEM33 / RFU, WDR75 / Fold change vs veh, WDR75 / RFU, AHCTF1 / Fold change vs veh, AHCTF1 / RFU, TFRC / Fold change vs veh, TFRC / RFU, ZDHHC17 / Fold change vs veh, ZDHHC17 / RFU, NOM1 / Fold change vs veh, NOM1 / RFU, ARL8B / Fold change vs veh, ARL8B / RFU, ZBTB11 / Fold change vs veh, ZBTB11 / RFU, TAMM41 / Fold change vs veh, TAMM41 / RFU, KIAA1704 /// LOC100996395 / Fold change vs veh, KIAA1704 /// LOC100996395 / RFU, ING1 / Fold change vs veh, ING1 / RFU, TRMT61B / Fold change vs veh, TRMT61B / RFU, FUBP3 / Fold change vs veh, FUBP3 / RFU, TP53 / Fold change vs veh, TP53 / RFU, TNKS2 / Fold change vs veh, TNKS2 / RFU, ZFP14 / Fold change vs veh, ZFP14 / RFU, ACTR2 / Fold change vs veh, ACTR2 / RFU, PPP3R1 / Fold change vs veh, PPP3R1 / RFU, PIK3R1 / Fold change vs veh, PIK3R1 / RFU, HNRNPA1 / Fold change vs veh, HNRNPA1 / RFU, RNF170 / Fold change vs veh, RNF170 / RFU, ZNF28 / Fold change vs veh, ZNF28 / RFU, RNGTT / Fold change vs veh, RNGTT / RFU, OGT / Fold change vs veh, OGT / RFU, BRD1 / Fold change vs veh, BRD1 / RFU, MARS / Fold change vs veh, MARS / RFU, ZNF655 / Fold change vs veh, ZNF655 / RFU, FAHD1 / Fold change vs veh, FAHD1 / RFU, BDP1 / Fold change vs veh, BDP1 / RFU, LRRCC1 / Fold change vs veh, LRRCC1 / RFU, ARID1A / Fold change vs veh, ARID1A / RFU, ZNF146 / Fold change vs veh, ZNF146 / RFU, ZNF330 / Fold change vs veh, ZNF330 / RFU, GPN3 / Fold change vs veh, GPN3 / RFU, C9orf123 / Fold change vs veh, C9orf123 / RFU, N4BP2L2 / Fold change vs veh, N4BP2L2 / RFU, ARFIP1 / Fold change vs veh, ARFIP1 / RFU, FAM179B / Fold change vs veh, FAM179B / RFU, BCL10 / Fold change vs veh, BCL10 / RFU, UHRF1BP1L / Fold change vs veh, UHRF1BP1L / RFU, BET1 / Fold change vs veh, BET1 / RFU, CNOT2 / Fold change vs veh, CNOT2 / RFU, ZNF268 / Fold change vs veh, ZNF268 / Fold change vs veh, ZNF507 / RFU, DGCR2 / Fold change vs veh, DGCR2 / RFU, WDSUB1 / Fold change vs veh, WDSUB1 / Fold change vs veh, HSP90B1 /// MIR3652 / RFU, ADSS / Fold change vs veh, ADSS / RFU, GK / Fold change vs veh, GK / RFU, ZNF148 / Fold change vs veh, ZNF148 / RFU, TAF9 / Fold change vs veh, TAF9 / RFU, SLC1A5 / Fold change vs veh, SLC1A5 / RFU, SLMO2 / Fold change vs veh, SLMO2 / RFU, ABCC4 / Fold change vs veh, ABCC4 / RFU, LOC101060439 /// RAP1B / Fold change vs veh, LOC101060439 /// RAP1B / RFU, RFX7 / Fold change vs veh, RFX7 / RFU, GTPBP10 / Fold change vs veh, GTPBP10 / RFU, CNEP1R1 / Fold change vs veh, CNEP1R1 / RFU, BIVM-ERCC5 /// ERCC5 / Fold change vs veh, BIVM-ERCC5 /// ERCC5 / RFU, ILF3 / Fold change vs veh, ILF3 / RFU 11762660_at / Fold change /veh 11762660_at / RFU VCAN (11757783_s_at) / Fold change /veh VCAN (11757783_s_at) / RFU DDX43 (11728927_at) / Fold change /veh DDX43 (11728927_at) / RFU KRT8 (11758188_x_at) / Fold change /veh KRT8 (11758188_x_at) / RFU NKD1 (11759106_at) / Fold change /veh NKD1 (11759106_at) / RFU SRD5A1 (11742802_a_at) / Fold change /veh SRD5A1 (11742802_a_at) / RFU TPSAB1 /// TPSB2 (11721975_s_at) / Fold change /veh TPSAB1 /// TPSB2 (11721975_s_at) / RFU GSTM3 (11746129_a_at) / Fold change /veh GSTM3 (11746129_a_at) / RFU IL23R (11737362_x_at) / Fold change /veh IL23R (11737362_x_at) / RFU TMEM51 (11727254_a_at) / Fold change /veh TMEM51 (11727254_a_at) / RFU PIWIL2 (11732686_x_at) / Fold change /veh PIWIL2 (11732686_x_at) / RFU ORM1 (11744905_x_at) / Fold change /veh ORM1 (11744905_x_at) / RFU CCDC152 (11743942_at) / Fold change /veh CCDC152 (11743942_at) / RFU ECM1 (11717891_a_at) / Fold change /veh ECM1 (11717891_a_at) / RFU IL23R (11748794_a_at) / Fold change /veh IL23R (11748794_a_at) / RFU TNFAIP8L3 (11732012_x_at) / Fold change /veh TNFAIP8L3 (11732012_x_at) / RFU MBOAT4 (11741988_at) / Fold change /veh MBOAT4 (11741988_at) / RFU 11764193_at / Fold change /veh 11764193_at / RFU TMEM53 (11763286_at) / Fold change /veh TMEM53 (11763286_at) / RFU MAGEB2 (11727129_at) / Fold change /veh MAGEB2 (11727129_at) / RFU TMEM200A (11744735_a_at) / Fold change /veh TMEM200A (11744735_a_at) / RFU CCDC152 (11751479_a_at) / Fold change /veh CCDC152 (11751479_a_at) / RFU FAM211A (11726209_a_at) / Fold change /veh FAM211A (11726209_a_at) / RFU RGS16 (11746705_a_at) / Fold change /veh RGS16 (11746705_a_at) / RFU VCAN (11755009_s_at) / Fold change /veh VCAN (11755009_s_at) / RFU RHOB (11743442_s_at) / Fold change /veh RHOB (11743442_s_at) / RFU RGS16 (11720943_a_at) / Fold change /veh RGS16 (11720943_a_at) / RFU RGS16 (11720944_at) / Fold change /veh RGS16 (11720944_at) / RFU, VPS4B / Fold change vs veh, VPS4B / RFU, CREB1 / Fold change vs veh, CREB1 / RFU, DNAJC13 / Fold change vs veh, DNAJC13 / RFU, GNAQ / Fold change vs veh, GNAQ / RFU, CDK5R1 / Fold change vs veh, CDK5R1 / RFU, ZRANB3 / Fold change vs veh, ZRANB3 / RFU, CUL4A / Fold change vs veh, CUL4A / RFU, CCNY / Fold change vs veh, CCNY / RFU, UFL1 / Fold change vs veh, UFL1 / RFU, COG3 / Fold change vs veh, COG3 / RFU, DIAPH2 / Fold change vs veh, DIAPH2 / RFU, SKA2 / Fold change vs veh, SKA2 / RFU, AFF3 / Fold change vs veh, AFF3 / RFU, LMF1 / Fold change vs veh, LMF1 / RFU, IPO11 / Fold change vs veh, IPO11 / RFU, DFFB / Fold change vs veh, DFFB / RFU, FOXP1 / Fold change vs veh, FOXP1 / RFU, CARD8 / Fold change vs veh, CARD8 / RFU, STRN3 / Fold change vs veh, STRN3 / RFU, ADK / Fold change vs veh, ADK / RFU, RASSF2 / Fold change vs veh, RASSF2 / RFU, WIPF1 / Fold change vs veh, WIPF1 / RFU, LARP1B / Fold change vs veh, LARP1B / RFU, RASA1 / Fold change vs veh, RASA1 / RFU, RB1 / Fold change vs veh, RB1 / RFU, PPFIA1 / Fold change vs veh, PPFIA1 / RFU, MAT2A / Fold change vs veh, MAT2A / RFU, CCT5 / Fold change vs veh, CCT5 / RFU, WDR92 / Fold change vs veh, WDR92 / RFU, CUX1 / Fold change vs veh, CUX1 / RFU, TTC7A / Fold change vs veh, TTC7A / RFU, TMEM135 / Fold change vs veh, TMEM135 / RFU, DEPTOR / Fold change vs veh, DEPTOR / RFU, CPM / Fold change vs veh, CPM / RFU, DNAJB6 / Fold change vs veh, DNAJB6 / RFU, CACNA2D3 / Fold change vs veh, CACNA2D3 / RFU, DTX4 / Fold change vs veh, DTX4 / RFU, TFCP2 / Fold change vs veh, TFCP2 / RFU, GMCL1 /// GMCL1P1 / Fold change vs veh, GMCL1 /// GMCL1P1 / RFU, AEBP2 / Fold change vs veh, AEBP2 / RFU, SNHG1 /// SNORD22 /// SNORD25 /// SNORD26 /// SNORD27 /// SNORD28 /// SNORD29 /// SNORD31 / Fold change vs veh, SNHG1 /// SNORD22 /// SNORD25 /// SNORD26 /// SNORD27 /// SNORD28 /// SNORD29 /// SNORD31 / Fold change (Aza/veh), C12orf56 (ProbeSet 11735607_a_at) / Fold change (ACY-1035/veh), C12orf56 (ProbeSet 11735607_a_at) / Fold change (Aza/veh), FGFR1OP (ProbeSet 11751329_s_at) / Fold change (ACY-1035/veh), FGFR1OP (ProbeSet 11751329_s_at) / Fold change (Aza/veh), VPS36 (ProbeSet 11739960_a_at) / Fold change (ACY-1035/veh), VPS36 (ProbeSet 11739960_a_at) / RFU SYPL1 (11715823_x_at) / Fold change /veh SYPL1 (11715823_x_at) / RFU IGFBP7 (11715501_s_at) / Fold change /veh IGFBP7 (11715501_s_at) / RFU REEP3 (11722064_at) / Fold change /veh REEP3 (11722064_at) / RFU IGLL1 (11728026_x_at) / Fold change /veh IGLL1 (11728026_x_at): dose or concentration left out as unconfirmed
Details: MV-4-11 cells, 48 hours

## Nc1ccc(-c2cccs2)cc1NC(=O)c1ccc2c(c1)cc(C1CC1)n2CCN1CCOCC1 [ACY-1035]
  Fold change /veh ORM1 (11744905_x_at): 1.11
